Measurements reported in ChEMBL document CHEMBL4138123, “Design, synthesis and biological evaluation of novel pyrazolochalcones as potential modulators of PI3K/Akt/mTOR pathway and inducers of apoptosis in breast cancer cells” (Eur J Med Chem, 2017).

Experiments:
Format in all cases: functional
[1] = system: HL-60(TB); assay: Cytotoxicity against human HL-60(TB) cells assessed as growth inhibition after 48 hrs by sulforhodamine B assay; details: HL-60, 48 h
[2] = system: HCC 2998; assay: Cytotoxicity against human HCC2998 cells assessed as growth inhibition after 48 hrs by sulforhodamine B assay; details: HCC 2998, 48 h
[3] = system: SNB-19; assay: Cytotoxicity against human SNB19 cells assessed as growth inhibition after 48 hrs by sulforhodamine B assay; details: SNB-19, 48 h; for CC50: read-out: LC50 (the source's name)
[4] = system: SK-OV-3; assay: Cytotoxicity against human SKOV3 cells assessed as growth inhibition after 48 hrs by sulforhodamine B assay; details: SK-OV-3, 48 h
[5] = system: UO-31; assay: Cytotoxicity against human UO31 cells assessed as growth inhibition after 48 hrs by sulforhodamine B assay; details: UO-31, 48 h
[6] = system: UACC-257; assay: Cytotoxicity against human UACC257 cells assessed as cell growth at 0.01 uM after 48 hrs by sulforhodamine B assay relative to control; details: UACC-257, 48 h, read-out: Activity
[7] = system: SW-620; assay: Cytotoxicity against human SW620 cells assessed as cell growth at 0.01 uM after 48 hrs by sulforhodamine B assay relative to control; details: SW-620, 48 h, read-out: Activity
[8] = system: HCT-116; assay: Cytotoxicity against human HCT116 cells assessed as cell growth at 0.01 uM after 48 hrs by sulforhodamine B assay relative to control; details: HCT-116, 48 h, read-out: Activity
[9] = system: NCI-H226; assay: Cytotoxicity against human NCI-H226 cells assessed as cell growth at 0.1 uM after 48 hrs by sulforhodamine B assay relative to control; details: NCI-H226, 48 h, read-out: Activity
[10] = system: NCI-H23; assay: Cytotoxicity against human NCI-H23 cells assessed as cell growth at 0.1 uM after 48 hrs by sulforhodamine B assay relative to control; details: NCI-H23, 48 h, read-out: Activity
[11] = system: NCI-H460; assay: Cytotoxicity against human NCI-H460 cells assessed as cell growth at 0.1 uM after 48 hrs by sulforhodamine B assay relative to control; details: NCI-H460, 48 h, read-out: Activity
[12] = system: NCI-H522; assay: Cytotoxicity against human NCI-H522 cells assessed as cell growth at 0.1 uM after 48 hrs by sulforhodamine B assay relative to control; details: NCI-H522, 48 h, read-out: Activity
[13] = system: HCT-116; assay: Cytotoxicity against human HCT116 cells assessed as cell growth at 0.1 uM after 48 hrs by sulforhodamine B assay relative to control; details: HCT-116, 48 h, read-out: Activity
[14] = system: SW-620; assay: Cytotoxicity against human SW620 cells assessed as cell growth at 0.1 uM after 48 hrs by sulforhodamine B assay relative to control; details: SW-620, 48 h, read-out: Activity
[15] = system: SK-MEL-5; assay: Cytotoxicity against human SK-MEL-5 cells assessed as cell growth at 0.1 uM after 48 hrs by sulforhodamine B assay relative to control; details: SK-MEL-5, 48 h, read-out: Activity
[16] = system: OVCAR-8; assay: Cytotoxicity against human OVCAR8 cells assessed as cell growth at 0.1 uM after 48 hrs by sulforhodamine B assay relative to control; details: OVCAR-8, 48 h, read-out: Activity
[17] = system: ACHN; assay: Cytotoxicity against human ACHN cells assessed as cell growth at 0.1 uM after 48 hrs by sulforhodamine B assay relative to control; details: read-out: Activity
[18] = system: PC-3; assay: Cytotoxicity against human PC3 cells assessed as cell growth at 0.1 uM after 48 hrs by sulforhodamine B assay relative to control; details: PC-3, 48 h, read-out: Activity
[19] = system: MCF7; assay: Cytotoxicity against human MCF7 cells assessed as cell growth at 0.1 uM after 48 hrs by sulforhodamine B assay relative to control; details: MCF7, 48 h, read-out: Activity
[20] = system: HL-60(TB); assay: Cytotoxicity against human HL-60(TB) cells assessed as cell growth at 1 uM after 48 hrs by sulforhodamine B assay relative to control; details: HL-60, 48 h, read-out: Activity
[21] = system: K562; assay: Cytotoxicity against human K562 cells assessed as cell growth at 1 uM after 48 hrs by sulforhodamine B assay relative to control; details: K562, 48 h, read-out: Activity
[22] = system: NCI-H226; assay: Cytotoxicity against human NCI-H226 cells assessed as cell growth at 1 uM after 48 hrs by sulforhodamine B assay relative to control; details: NCI-H226, 48 h, read-out: Activity
[23] = system: NCI-H460; assay: Cytotoxicity against human NCI-H460 cells assessed as cell growth at 1 uM after 48 hrs by sulforhodamine B assay relative to control; details: NCI-H460, 48 h, read-out: Activity
[24] = system: SF-539; assay: Cytotoxicity against human SF539 cells assessed as cell growth at 1 uM after 48 hrs by sulforhodamine B assay relative to control; details: SF-539, 48 h, read-out: Activity
[25] = system: BT-549; assay: Cytotoxicity against human BT549 cells assessed as cell growth at 1 uM after 48 hrs by sulforhodamine B assay relative to control; details: BT-549, 48 h, read-out: Activity
[26] = system: KM12; assay: Cytotoxicity against human KM12 cells assessed as cell growth at 10 uM after 48 hrs by sulforhodamine B assay relative to control; details: KM12, 48 h, read-out: Activity
[27] = system: IGROV-1; assay: Cytotoxicity against human IGROV1 cells assessed as cell growth at 10 uM after 48 hrs by sulforhodamine B assay relative to control; details: IGROV-1, 48 h, read-out: Activity
[28] = system: UO-31; assay: Cytotoxicity against human UO31 cells assessed as cell growth at 10 uM after 48 hrs by sulforhodamine B assay relative to control; details: UO-31, 48 h, read-out: Activity
[29] = system: T47D; assay: Cytotoxicity against human T47D cells assessed as cell growth at 10 uM after 48 hrs by sulforhodamine B assay relative to control; details: read-out: Activity
[30] = system: A549; assay: Cytotoxicity against human A549/ATCC cells assessed as cell growth at 100 uM after 48 hrs by sulforhodamine B assay relative to control; details: A549, 48 h, read-out: Activity
[31] = system: COLO 205; assay: Cytotoxicity against human COLO205 cells assessed as cell growth at 100 uM after 48 hrs by sulforhodamine B assay relative to control; details: COLO 205, 48 h, read-out: Activity
[32] = system: OVCAR-8; assay: Cytotoxicity against human OVCAR8 cells assessed as cell growth at 100 uM after 48 hrs by sulforhodamine B assay relative to control; details: OVCAR-8, 48 h, read-out: Activity
[33] = system: A498; assay: Cytotoxicity against human A498 cells assessed as cell growth at 100 uM after 48 hrs by sulforhodamine B assay relative to control; details: A498, 48 h, read-out: Activity
[34] = system: PC-3; assay: Cytotoxicity against human PC3 cells assessed as cell growth at 100 uM after 48 hrs by sulforhodamine B assay relative to control; details: PC-3, 48 h, read-out: Activity
[35] = system: DU-145; assay: Cytotoxicity against human DU145 cells assessed as cell growth at 100 uM after 48 hrs by sulforhodamine B assay relative to control; details: DU-145, 48 h, read-out: Activity

For `COc1ccc(-c2cc(/C=C/C(=O)c3ccc(N)cc3)[nH]n2)cc1`, the GI50 [1] was 1.43 µM, the LC50 [1] was > 100 µM and the TGI [1] was 7.71 µM. It also gave a GI50 [2] of 1.83 µM, an LC50 [2] of 6.17 µM and a TGI [2] of 3.36 µM. It also gave a GI50 [3] of 2.29 µM, a TGI [3] of 11.6 µM and a CC50 [3] of 44.3 µM. It also gave a GI50 [4] of 4.72 µM, an LC50 [4] of 63.6 µM and a TGI [4] of 18 µM. The GI50 [5] was 1.18 µM, the LC50 [5] was 5.54 µM and the TGI [5] was 2.56 µM. It also gave a growth at 0.01 µM [6] of 96%, a growth at 0.01 µM [7] of 100% and a growth at 0.01 µM [8] of 97%. For the same molecule, the growth at 0.1 µM [9] was 84%, the growth at 0.1 µM [10] was 94% and the growth at 0.1 µM [11] was 102%. For the same molecule, the growth at 0.1 µM [12] was 85%, the growth at 0.1 µM [13] was 105% and the growth at 0.1 µM [14] was 101%. For the same molecule, the growth at 0.1 µM [15] was 90%, the growth at 0.1 µM [16] was 100% and the growth at 0.1 µM [17] was 105%. It also gave a growth at 0.1 µM [18] of 93%, a growth at 0.1 µM [19] of 94% and a growth at 1 µM [20] of 61%. It also gave a growth at 1 µM [21] of 58%, a growth at 1 µM [22] of 86% and a growth at 1 µM [23] of 92%. For the same molecule, the growth at 1 µM [24] was 72%, the growth at 1 µM [25] was 77% and the growth at 10 µM [26] was -67%. It also gave a growth at 10 µM [27] of -21%, a growth at 10 µM [28] of -88% and a growth at 10 µM [29] of -1%. The growth at 100 µM [30] was -75%, the growth at 100 µM [31] was -74% and the growth at 100 µM [32] was -41%. The growth at 100 µM [33] was -96%, the growth at 100 µM [34] was -83% and the growth at 100 µM [35] was -100%.
`COc1ccc(C(=O)/C=C/c2cc(-c3cc(OC)c(OC)c(OC)c3)n[nH]2)cc1OC` showed an LC50 [1] of 80.2 µM, a TGI [1] of 4.18 µM and an LC50 [2] of 6.7 µM. It also gave a TGI [2] of 3.78 µM, a TGI [3] of 3.01 µM and a CC50 [3] of 6.36 µM. It also gave an LC50 [4] of 27.6 µM, a TGI [4] of 7.82 µM and an LC50 [5] of 5.17 µM. For the same molecule, the TGI [5] was 2.57 µM, the growth at 0.01 µM [6] was 85% and the growth at 0.01 µM [7] was 101%. The growth at 0.01 µM [8] was 99%, the growth at 0.1 µM [9] was 97% and the growth at 0.1 µM [10] was 94%. It also gave a growth at 0.1 µM [11] of 101%, a growth at 0.1 µM [12] of 91% and a growth at 0.1 µM [13] of 100%. It also gave a growth at 0.1 µM [14] of 99%, a growth at 0.1 µM [15] of 96% and a growth at 0.1 µM [16] of 92%. For the same molecule, the growth at 0.1 µM [17] was 97%, the growth at 0.1 µM [18] was 95% and the growth at 0.1 µM [19] was 91%. The growth at 1 µM [20] was 67%, the growth at 1 µM [21] was 75% and the growth at 1 µM [22] was 89%. It also gave a growth at 1 µM [23] of 70%, a growth at 1 µM [24] of 67% and a growth at 1 µM [25] of 76%. The growth at 10 µM [26] was -87%, the growth at 10 µM [27] was -84% and the growth at 10 µM [28] was -97%. For the same molecule, the growth at 10 µM [29] was -42%, the growth at 100 µM [30] was -78% and the growth at 100 µM [31] was -75%. It also gave a growth at 100 µM [32] of -96%, a growth at 100 µM [33] of -96% and a growth at 100 µM [34] of -95%. The growth at 100 µM [35] was -89%.
